# Data as given in patent publication US10036741B2, “Systems, models and methods for identifying and evaluating skin-active agents effective for treating an array of skin disorders” (The Procter & Gamble Company, priority 2012, dated 2018).
# Experiments:
# [1] = test system: unhealthy skin gene expression signature; assay: Connectivity mapping (C-map) query of stored skin instances with the unhealthy skin gene expression signature; type: cell-based, human; settings: text statement on highest-ranked results of Table C
# Description: Referring to FIG. 6 and FIG. 7, an exemplary method for querying instances with one or more gene expression signatures will now be described. Broadly, the method comprises querying a data architecture of stored instances (e.g., skin instances) with one or more gene signatures (e.g., an unhealthy skin gene expression signature), and applying a statistical method to determine how strongly the gene expression signature genes match the regulated genes in an instance.
# The up-score and down-score have, for example, values between +1 and −1. […] In these embodiments, the gene expression signature comprises the combination of the up list and the down list. […]
# The combination of the up-score and down-score is used to calculate an overall connectivity score for each instance, and in embodiments where up- and down-score ranges are set between −1 and +1, the connectivity score ranges from −2 to +2, and represents the strength of match between a query gene expression signature and the instance. The sign of the overall score is determined by whether the instance links positivity or negatively to the signature. […]
# dandruff = assay: Effect of ZPT-containing shampoo on the unhealthy skin gene expression signature in dandruff sufferers (Study 2); type: in vivo, human; settings: dandruff subjects, scalp biopsies, three weeks of treatment
# Description: Hierarchical Cluster Analysis of Dandruff vs. Non-Dandruff (Study 1): Genome-wide transcriptional profiles of the dandruff condition and healthy scalp were assessed using RNA extracted from full thickness scalp biopsies. […] Each row in FIG. 9 represents a single probe set and each column represents the group average of all subjects (not a single microarray experiment).
# Effect of zinc pyrithione (ZPT) on the Unhealthy Skin Gene Expression Signature in Dandruff Sufferers (Study 2): We examined the effect of ZPT on the transcriptomic profile in dandruff sufferers during a course of treatment known to resolve the key symptoms of the condition (flake and itch) and substantially restore the scalp skin histology and cell surface biomarker profile to a healthy state. In this study, we were able to replicate our key transcriptomic findings from Study 1 in a second study population. It is notable that using the expression levels of the same 400 probe sets in the unhealthy gene expression signature, which all satisfied the p<0.05 criterion, hierarchical cluster analysis again clearly separated Dandruff from Non-dandruff (see All Dandruff Baseline vs. Non-Dandruff Baseline). […] This underscores the fundamental importance of the gene products associated with this signature to skin homeostasis.
Compound,rank of instances in C-map query (linkage score) [1],"gene expression profile (400 probe sets of unhealthy skin signature), hierarchical cluster analysis (dandruff)"
CC1=C(/C=C/C(C)=C/C=C/C(C)=C/C(=O)O)C(C)(C)CCC1 [All-trans retinoic acid],strongest negative linkage scores,
NC(=O)c1cccnc1 [Nicotinamide],strongest negative linkage scores,
zinc pyrithione [zinc pyriothione],,reversal of the unhealthy skin gene expression signature
